Results as given in US20230240302A1, “Antimicrobial silver coordination complexes” (Penta Science Industries Holding B.V., priority 2020, published 2023).

Assays:
[1] = Solubility; type: physicochemical
[2] = Photochemical and thermal stability; type: physicochemical

solubility in aqueous solution [1] | photochemical and thermal stability [2] | SMILES
very high solubility |  | O=S(=O)([O-])CCC[S-].O=S(=O)([O-])CCC[S-].[Ag+].[Na+].[Na+].[Na+] [Na^+3[Ag^+(MPS^2−)2]^3−]
very high solubility | thermally and photochemically stable | O=C([O-])c1ccccc1[S-].O=C([O-])c1ccccc1[S-].[Ag+].[Na+].[Na+].[Na+] [Na^+3[Ag^+(TS^2−)2]^3−]
very high solubility | thermally and photochemically stable | O=S(=O)([O-])c1ccc2[nH]c([S-])nc2c1.O=S(=O)([O-])c1ccc2[nH]c([S-])nc2c1.[Ag+].[Na+].[Na+].[Na+] [Na^+3[Ag^+(X^2−)2]^3−]
